Measurements published in US20160208249A1, “Compositions and Methods for Inducing Senescence in Cancer Cells” (INSERM (Institut National de la Sante et de la Recherche …, priority 2013, published 2016).

What was measured:
A375 melanoma cells = experiment: Senescence associated-β-Gal assay; format: cell-based, human; details: 4 days
Method: Senescence associated-β-Gal assay: Cells were washed then fixed for 15 min at RT and stained using the Senescence β-Galactosidase staining kit following manufacturer instruction (Cell Signaling, Beverly, Mass.). A blue color reflects the β-Gal activity.
(§1) Transcription Factor Decoys (TFD) preparation and treatment. Double stranded TFDs were obtained by annealing at 95 C two complementary single stranded oligos (purchased from Invitrogen). TFDs were designed by copying the NF-kB2 sequences discovered on the EZH2 promoter (i.e. p52 decoy referred as and TFD4 as previously described). […] If not otherwise described cells were incubated with the TFDs for 4 days prior harvesting for qPCR evaluation of EZH2 levels or Senescence associated-β-Gal assay. As non specific control, a scramble sequence was used.

NF-kB = NF-kB luciferase reporter activity in melanoma cells; format: cell-based, human; details: A375, 4 days; PGJ2 1.5 μM, Bay 11-7082 2 μM, sulfasalazine 50 μM (FIG. 8A)
Method: Cells were transfected with NF-kB-luciferase reporter (NF-kB-Luc, Qiagen Germantown Md.) sensitive to overall NF-kB activation and with CMV promoter b-Galactosidase (pCMVβGal) for normalization purpose. Lipofectamine 2000 (Invitrogen, Carlsbad, Calif.) was used as transfection agent. 48 hrs post transfection, luciferase activity was tested using the luciferase assay system kit (Promega) and measured with the Clarity Luminescence Microplate Reader (Bio-Tek Instruments, Winooski, Vt.).
For gene reporter activity post gene silencing using RNA interference, cells were first transfected with SiRNAs according to experimental design using as transfecting agent Lipofectamine RNAimax as previously described. 24 hrs post transfection cells were again transfected using EZH2 promoter Renilla construct or NF-kB-luciferase reporter and pCMVβGal. 48 hrs after addition of the reporter plasmid, cells were harvested and luciferase or Renilla activity measured as above mentioned.

EZH2 [1] = experiment: qRT-PCR analysis of EZH2 mRNA in A375 cells; format: cell-based, human; details: for EZH2 mRNA: A375 cells treated for 3 days (FIG. 1B)
Method: Transfection experiments with Small interfering RNAs (siRNAs): Typically 30 000 to 50 000 cells were plated in 6-well culture plates and transfected 24 hours later with 25 nM or 50 nM siRNAs using Lipofectamine RNAimax (Invitrogen) according to manufacturer protocol. If not otherwise described cells were incubated with the si-RNA for 4 days prior harvesting for further experiments. […] As non specific control, a scramble sequence siRNA was used (cat. 16106, Ambion, Life Technologies, Grand Island, N.Y.).
(§2) Quantitative RT-PCR analysis: Total RNA was isolated from cells using RNAeasy minikit (Qiagen) according to manufacturer's procedure. Reverse transcription was performed using AMV reverse transcription system (Promega) while quantitative PCR was performed with Power Sybr green (Applied biosystem, Life Technologies, Grand Island, N.Y.) following manufacturer instructions (List of primers are available in supplementary information). PCR reaction was carried on a Step One plus Real-Time PCR system (Applied Biosystems). All analyses were done in triplicate and melting curve analysis was performed to control for product quality and specificity. Expression levels were calculated using the comparative method of relative quantification, with SB34 as normalizer. Data were analyzed for their statistical significance applying Student's t-test. Results are presented as mean±SEM relative to the control.
as §1

EZH2 [2] = experiment: Western blot of EZH2 protein in melanoma cell lines; format: cell-based, human; details: metastatic melanoma cell lines carrying or not B-RAF V600E; PGJ2 2 μM 3 days, Bay 11-7082 2 μM 4 days
Method: Western Blot: Twenty to thirty micrograms of total proteins were run on 12% SDS-polyacrylamide gel electrophoresis. After transfer to polyvinylidene fluoride membrane (Millipore), immunoblotting was performed according to Laemli method. Glyceraldehyde-3-phosphate dehydrogenase (GAPDH), β-Actin or ERK2 were used as loading controls. Membranes were then incubated with an enhanced chemiluminescence system (Amersham) and immunoreactive bands were visualized using the luminescent image analyzer Fujifilm LAS-4000 (GE Healthcare).

melanoma = details: cited from earlier work
EZH2 [3] = experiment: EZH2 level in melanoma cells cultured from patients' metastases; format: cell-based, human; details: melanoma cells from nine patients' metastases, PGJ2 2 μM 3 days / 1.5 μM 4 days
Method: Cell Culture: HEK293, Human A375 (CRL-1619), SK-Mel-28 (HTB-72) and MeWo (HTB-65) melanoma cell lines were purchased from American Tissue Culture Collection (Molsheim, France). Human primary melanoma cells were extracted from metastatic melanoma specimens that were obtained from the Department of Dermatology and the Biobank of the University hospital of Nice, France. All patients provided informed written consent. Biopsy was dissected and digested for 1-2 h with collagenase A (0.33 U/ml), dispase (0.85 U/ml) and Dnase I (144 U/ml) with rapid shaking at 37° C. Large debris were removed by filtration through a 70-μm cell strainer. Viable cells were obtained by Ficoll gradient centrifugation. […]
as §2, with “PCR reaction was carried on a Step One plus Real-Time PCR system (Applied Biosystems). All analyses were done in triplicate and melting curve analysis was performed to control for product quality and specificity.” left out, “Results are presented as mean±SEM relative to the control.” left out

## TFD4: p52 decoy, double stranded DNA ODN: forward ATCGGGGCTCACC (SEQ ID NO: 8), reverse GGTGAGCCCCGAT (SEQ ID NO: 9) (DNA, backbone and methylation of C not given here)
A375 melanoma cells
  senescence / SA-β-Gal activity: induce senescence

## O=C(O)c1cc(/N=N/c2ccc(S(=O)(=O)Nc3ccccn3)cc2)ccc1O [sulfasalazine]
NF-kB
  NF-kB activity: inhibition of NF-kB activity
EZH2 [1]
  EZH2 mRNA: marked decrease
EZH2 [2]
  EZH2 at protein level: decrease of EZH2 at protein level

## Ipilimumab: anti-CTLA-4 antibody used for the treatment of melanoma
melanoma; melanoma patients
  patients responding to treatment: 10%
melanoma; stage 4 melanoma patients
  overall survival: increased the overall survival

## TFD1: p52 decoy, double stranded DNA ODN: forward ATCGGGTCTCC (SEQ ID NO: 6), reverse GGAGAGCCCGAT (SEQ ID NO: 7) (DNA, backbone and methylation of C not given here)
A375 melanoma cells
  senescence / SA-β-Gal activity: induce senescence

## CCCCC/C=C/C=C1/C(=O)C=C[C@@H]1C/C=C\CCCC(=O)O [PGJ2, 15-deoxy-delta12,14-Prostaglandin J2]
NF-kB
  NF-kB activity: inhibition of NF-kB activity
EZH2 [1]; A375, time and dose dependent (FIG. 1C)
  start of effect on EZH2 mRNA: ≤ 6 h
EZH2 [1]
  EZH2 mRNA: marked decrease
EZH2 [2]
  EZH2 at protein level: decrease of EZH2 at protein level
EZH2 [3]
  EZH2 protein level: consistent decrease of EZH2

## Cc1ccc(S(=O)(=O)/C=C/C#N)cc1 [Bay 11-7082]
NF-kB
  NF-kB activity: inhibition of NF-kB activity
EZH2 [1]
  EZH2 mRNA: marked decrease
EZH2 [2]
  EZH2 at protein level: decrease of EZH2 at protein level
